Assay [1] relates to MKN-45. The assay is described as follows: cells. The conditions noted are these: Homo sapiens, MKN-45, 48 h.
Assay [2] can be described thus: Inhibition of rice alpha-glucosidase using p-nitrophenyl glycoside as substrate assessed as release of p-nitrophenol by spectrometric analysis. On the set-up: species or system Oryza sativa.
In assay [3] the target is Alpha-galactosidase (Coffea arabica) (UniProt Q42656). The assay is described as follows: Inhibition of coffee bean alpha-galactosidase using p-nitrophenyl glycoside as substrate assessed as release of p-nitrophenol at 1000 uM by spectrometric analysis relative to control.
Assay [4] addresses T1, Alpha-mannosidase (Canavalia ensiformis) (UniProt C0HJB3).
T1 sequence (whole entry): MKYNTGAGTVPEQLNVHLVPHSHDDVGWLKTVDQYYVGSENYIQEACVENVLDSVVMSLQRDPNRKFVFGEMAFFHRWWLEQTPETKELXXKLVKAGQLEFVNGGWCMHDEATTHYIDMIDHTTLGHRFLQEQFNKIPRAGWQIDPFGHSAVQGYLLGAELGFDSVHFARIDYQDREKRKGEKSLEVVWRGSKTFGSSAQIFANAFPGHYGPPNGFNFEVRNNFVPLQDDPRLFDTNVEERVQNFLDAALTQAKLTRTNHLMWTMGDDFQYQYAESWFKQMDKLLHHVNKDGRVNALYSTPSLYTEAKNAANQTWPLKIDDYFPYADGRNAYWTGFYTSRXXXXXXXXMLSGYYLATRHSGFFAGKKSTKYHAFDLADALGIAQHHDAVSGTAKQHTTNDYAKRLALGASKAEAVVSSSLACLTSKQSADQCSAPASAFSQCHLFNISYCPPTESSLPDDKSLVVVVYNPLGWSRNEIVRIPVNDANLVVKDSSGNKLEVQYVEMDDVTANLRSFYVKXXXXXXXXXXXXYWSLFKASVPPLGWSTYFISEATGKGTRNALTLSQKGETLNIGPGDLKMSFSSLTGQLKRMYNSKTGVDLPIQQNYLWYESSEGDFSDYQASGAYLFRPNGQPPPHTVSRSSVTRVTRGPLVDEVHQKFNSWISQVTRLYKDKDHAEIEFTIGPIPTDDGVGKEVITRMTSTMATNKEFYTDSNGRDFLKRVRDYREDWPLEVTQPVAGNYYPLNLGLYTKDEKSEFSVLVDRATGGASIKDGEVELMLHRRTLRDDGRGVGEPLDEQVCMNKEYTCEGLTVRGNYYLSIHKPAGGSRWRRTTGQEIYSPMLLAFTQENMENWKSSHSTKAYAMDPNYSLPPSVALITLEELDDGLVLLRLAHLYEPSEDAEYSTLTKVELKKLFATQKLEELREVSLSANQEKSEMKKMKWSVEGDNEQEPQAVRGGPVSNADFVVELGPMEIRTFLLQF
Nature of the assay: Inhibition of jack bean alpha-mannosidase using p-nitrophenyl glycoside as substrate assessed as release of p-nitrophenol at 1000 uM by spectrometric analysis relative to control.

Assay [5] addresses T2, Glucosylceramidase (Bos taurus) (UniProt Q2KHZ8).
T2 sequence (whole entry): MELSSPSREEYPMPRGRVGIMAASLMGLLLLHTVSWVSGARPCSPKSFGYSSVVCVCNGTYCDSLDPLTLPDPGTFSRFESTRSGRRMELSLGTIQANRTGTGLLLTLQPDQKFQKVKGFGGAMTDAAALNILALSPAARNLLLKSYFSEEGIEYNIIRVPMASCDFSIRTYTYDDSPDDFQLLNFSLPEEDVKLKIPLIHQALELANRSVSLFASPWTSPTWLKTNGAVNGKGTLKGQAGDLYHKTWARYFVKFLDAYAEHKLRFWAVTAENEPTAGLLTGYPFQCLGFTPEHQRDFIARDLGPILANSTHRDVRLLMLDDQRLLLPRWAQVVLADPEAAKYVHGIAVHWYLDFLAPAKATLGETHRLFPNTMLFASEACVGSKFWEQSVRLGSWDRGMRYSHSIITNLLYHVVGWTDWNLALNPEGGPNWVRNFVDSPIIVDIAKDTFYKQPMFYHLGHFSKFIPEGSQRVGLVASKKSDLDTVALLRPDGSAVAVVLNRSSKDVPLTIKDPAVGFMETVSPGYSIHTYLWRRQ
Nature of the assay: Inhibition of bovine liver beta-glucosidase using p-nitrophenyl glycoside as substrate assessed as release of p-nitrophenol at 1000 uM by spectrometric analysis relative to control.

Assay [6] can be described thus: Inhibition of bovine liver beta-galactosidase using p-nitrophenyl glycoside as substrate assessed as release of p-nitrophenol by spectrometric analysis. On the set-up: species or system Bos taurus.
Assay [7] deals with T3, Tissue alpha-L-fucosidase (Bos taurus) (UniProt Q2KIM0).
T3 sequence (whole entry): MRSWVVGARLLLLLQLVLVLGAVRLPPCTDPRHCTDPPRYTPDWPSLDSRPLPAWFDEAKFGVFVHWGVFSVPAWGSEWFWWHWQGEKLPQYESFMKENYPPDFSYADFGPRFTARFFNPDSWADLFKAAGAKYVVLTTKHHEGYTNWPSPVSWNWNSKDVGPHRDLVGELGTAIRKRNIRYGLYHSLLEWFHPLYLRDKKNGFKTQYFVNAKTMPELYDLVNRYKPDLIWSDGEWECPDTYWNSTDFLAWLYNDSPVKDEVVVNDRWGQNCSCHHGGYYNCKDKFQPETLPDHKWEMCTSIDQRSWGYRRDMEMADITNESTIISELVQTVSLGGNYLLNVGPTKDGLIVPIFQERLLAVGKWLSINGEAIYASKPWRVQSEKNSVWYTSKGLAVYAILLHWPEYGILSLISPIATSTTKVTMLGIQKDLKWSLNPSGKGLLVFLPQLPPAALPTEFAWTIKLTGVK
Nature of the assay: Inhibition of bovine kidney alpha-L-fucosidase using p-nitrophenyl glycoside as substrate assessed as release of p-nitrophenol at 1000 uM by spectrometric analysis relative to control.

Assay [8] concerns the target Lysosomal alpha-glucosidase (Homo sapiens, UniProt P10253). The assay is described as follows: Inhibition of human lysosome alpha-glucosidase using p-nitrophenyl glycoside as substrate assessed as release of p-nitrophenol by spectrometric analysis.

The values that follow come from ChEMBL document CHEMBL5579830, “Design and synthesis of 6-C-alkyl-DMDP type nanomolar inhibitors of β-galactosidase and β-glucosidase based on broussonetine S and related derivatives” (Eur J Med Chem, 2024).

Alpha-galactosidase (Coffea arabica), sequence (Q42656 16-378 limits assumed): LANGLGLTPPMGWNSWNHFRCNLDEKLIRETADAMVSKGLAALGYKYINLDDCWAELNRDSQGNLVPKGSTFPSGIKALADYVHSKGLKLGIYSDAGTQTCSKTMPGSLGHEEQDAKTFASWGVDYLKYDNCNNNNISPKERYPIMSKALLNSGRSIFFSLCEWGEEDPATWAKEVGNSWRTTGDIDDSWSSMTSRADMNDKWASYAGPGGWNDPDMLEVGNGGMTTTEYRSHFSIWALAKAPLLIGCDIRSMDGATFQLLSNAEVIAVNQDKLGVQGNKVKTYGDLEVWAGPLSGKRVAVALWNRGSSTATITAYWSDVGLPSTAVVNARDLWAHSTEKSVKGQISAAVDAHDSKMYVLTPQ

As a reminder, the EC50 is the concentration at which the effect is half-maximal. Low values mean higher potency in that assay, high ones lower potency in that assay. Turning to `CC(=O)O[C@H]1C(=O)[C@@]2(C)[C@H]([C@H](OC(=O)c3ccccc3)[C@]3(O)C[C@H](OC(=O)[C@H](O)[C@@H](NC(=O)c4ccccc4)c4ccccc4)C(C)=C1C3(C)C)[C@]1(OC(C)=O)CO[C@@H]1C[C@@H]2O` [PACLITAXEL], the EC50 in assay [1] was 0.003 µM.

As usually defined, the IC50 is the concentration that inhibits the measured activity by half. By inhibition is commonly meant the percentage by which the read-out fell short of the control. As for `OCCC[C@H](O)CCCCCCCCC[C@@H]1N[C@@H](CO)[C@H](O)[C@H]1O`, the IC50 in assay [2] turned out to be 1.2 µM; in assay [6], 50 µM. For the same compound, the inhibition in assay [3] was 0.3%; in assay [4], 2.2%; in assay [5], 46.5%; in assay [7] it was 0%.

As to `CCCCCCC[C@H](O)[C@@H]1N[C@@H](CO)[C@H](O)[C@H]1O`, the IC50 was found to be 6 µM in assay [2], 41 µM in assay [6] and 2.1 µM in assay [8]. In addition, the values for the inhibition in assay [3] and in assay [4] were 0% and 2.6%, respectively.
